System: P12-Ichikawa
Experiment: cell viability relative to DMSO control; higher = less cytotoxic
Settings: 48 h
Method in brief: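 Viability was expressed as a per-plate percentage of DMSO wells, with cell-free wells as background. Leukemia cells (NOMO1 or SEM at 500 cells/well, P12-Ichikawa at 1000 cells/well) were adapted for at least four passages in each medium and seeded in 1536-well plates (5 μl). Library compounds in DMSO were pin-dosed over an 11-point threefold series from 47 μM to 0.79 nM, and CellTiter-Glo One luminescence was read after 48 h at 37°C.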

[1] = HPLM + 10% dialyzed FBS, 0.000781 µM
[2] = HPLM + 10% dialyzed FBS, 0.00234 µM
[3] = HPLM + 10% dialyzed FBS, 0.00702 µM
[4] = HPLM + 10% dialyzed FBS, 0.0211 µM
[5] = HPLM + 10% dialyzed FBS, 0.0632 µM
[6] = HPLM + 10% dialyzed FBS, 0.19 µM
[7] = HPLM + 10% dialyzed FBS, 0.569 µM
[8] = HPLM + 10% dialyzed FBS, 1.71 µM
[9] = HPLM + 10% dialyzed FBS, 5.12 µM
[10] = HPLM + 10% dialyzed FBS, 15.4 µM
[11] = HPLM + 10% dialyzed FBS, 46.1 µM
[12] = RPMI 5 mM glucose + 10% FBS, 0.000781 µM
[13] = RPMI 5 mM glucose + 10% FBS, 0.00234 µM
[14] = RPMI 5 mM glucose + 10% FBS, 0.00702 µM
[15] = RPMI 5 mM glucose + 10% FBS, 0.0211 µM
[16] = RPMI 5 mM glucose + 10% FBS, 0.0632 µM
[17] = RPMI 5 mM glucose + 10% FBS, 0.19 µM
[18] = RPMI 5 mM glucose + 10% FBS, 0.569 µM
[19] = RPMI 5 mM glucose + 10% FBS, 1.71 µM
[20] = RPMI 5 mM glucose + 10% FBS, 5.12 µM
[21] = RPMI 5 mM glucose + 10% FBS, 15.4 µM
[22] = RPMI 5 mM glucose + 10% FBS, 46.1 µM
[23] = RPMI 5 mM glucose + 10% dialyzed FBS, 0.000781 µM
[24] = RPMI 5 mM glucose + 10% dialyzed FBS, 0.00234 µM
[25] = RPMI 5 mM glucose + 10% dialyzed FBS, 0.00702 µM
[26] = RPMI 5 mM glucose + 10% dialyzed FBS, 0.0211 µM
[27] = RPMI 5 mM glucose + 10% dialyzed FBS, 0.0632 µM
[28] = RPMI 5 mM glucose + 10% dialyzed FBS, 0.19 µM
[29] = RPMI 5 mM glucose + 10% dialyzed FBS, 0.569 µM
[30] = RPMI 5 mM glucose + 10% dialyzed FBS, 1.71 µM
[31] = RPMI 5 mM glucose + 10% dialyzed FBS, 5.12 µM
[32] = RPMI 5 mM glucose + 10% dialyzed FBS, 15.4 µM
[33] = RPMI 5 mM glucose + 10% dialyzed FBS, 46.1 µM

Structure (SMILES)	cell viability [1] [%]	cell viability [2] [%]	cell viability [3] [%]	cell viability [4] [%]	cell viability [5] [%]	cell viability [6] [%]	cell viability [7] [%]	cell viability [8] [%]	cell viability [9] [%]	cell viability [10] [%]	cell viability [11] [%]	cell viability [12] [%]	cell viability [13] [%]	cell viability [14] [%]	cell viability [15] [%]	cell viability [16] [%]	cell viability [17] [%]	cell viability [18] [%]	cell viability [19] [%]	cell viability [20] [%]	cell viability [21] [%]	cell viability [22] [%]	cell viability [23] [%]	cell viability [24] [%]	cell viability [25] [%]	cell viability [26] [%]	cell viability [27] [%]	cell viability [28] [%]	cell viability [29] [%]	cell viability [30] [%]	cell viability [31] [%]	cell viability [32] [%]	cell viability [33] [%]
C[N]1C=C(C2=C1C=CC=C2)\C3=C(\C(=O)NC3=O)C4=C5CC(CN)CC[N]5C6=C4C=CC=C6 (stereo not given)	103	105	106	113	98	116	110	108	106	84.2	60.3	97.2	108	101	111	90.5	117	120	115	94.6	66.2	45	119	116	119	113	113	129	129	119	109	83.4	45.7
C=CC(=O)N1CCC[C@@H](n2nc(-c3ccc(Oc4ccccc4)cc3)c3c(N)ncnc32)C1	127	123	120	121	114	112	111	91.8	80.7	76.3	80.5	–	–	–	–	–	–	–	–	–	–	–	–	–	–	–	–	–	–	–	–	–	–
Cn1cnc2c1c(=O)[nH]c(=O)n2C	105	107	100	104	110	105	112	108	97.1	98	9.4	104	104	93.9	97.6	103	103	100	98.5	99	82.2	34.1	102	102	103	102	100	99.8	103	97.9	87.2	80.9	25.7
C[C@]12CCC(=O)C=C1CC[C@@H]1[C@@H]2CC[C@@]2(C)[C@H]1CC[C@]2(C)O	105	110	105	91.5	104	107	109	104	102	89.6	86.4	94.7	93.3	105	79.6	104	102	104	94.9	97.9	92.1	79.8	94.6	101	100	80.5	94.8	100	91.7	106	97.5	87.7	88.1
CN[C@@H]1[C@H](O)[C@H](NC)[C@H]2O[C@@]3(O)C(=O)C[C@@H](C)O[C@H]3O[C@@H]2[C@H]1O	118	117	124	115	118	116	114	111	114	101	98.4	109	117	126	120	117	113	105	106	106	105	97.5	122	121	115	116	106	116	117	106	114	107	101
C=C[C@H]1CN2CC[C@H]1C[C@H]2[C@H](O)c1ccnc2ccc(OC)cc12	100	98.6	93.6	104	96.3	100	104	105	108	110	100	95.9	104	99.4	95.7	93.6	101	106	109	129	111	75.4	89.9	89	91.7	93.1	96.3	96.7	94.1	95.3	102	101	81
C[C@@]12C[C@@]3(O)O[C@@H](O1)[C@]1(COC(=O)c4ccccc4)[C@H]3C[C@@]12O[C@@H]1O[C@H](CO)[C@@H](O)[C@H](O)[C@H]1O	91.3	96	103	100	110	99.5	103	108	109	97.5	76.7	94.9	99.4	111	111	118	105	108	116	118	113	112	89.8	95.4	103	110	105	97.4	108	104	103	110	101
CCC[C@H]1C[C@H](C(=O)N[C@@H]([C@@H]2O[C@@H](SC)[C@@H](O)[C@@H](O)[C@H]2O)[C@H](C)Cl)N(C)C1	103	117	115	120	119	124	123	124	125	118	127	105	113	112	121	132	131	137	119	130	130	134	113	122	115	115	128	124	126	119	130	122	121
Cc1c(NC(=O)OC[C@@H]2COCCN2)cn2ncnc(Nc3ccc4c(cnn4Cc4cccc(F)c4)c3)c12	80	83.9	91.5	90	94.8	96.5	99.8	94.3	86.8	87.8	50.6	83	84.4	90.8	87.9	92.9	85.8	86	92.2	76.6	81.3	48.3	83.4	84.4	88.9	97.3	100	88.1	89.2	92.9	91.3	82.8	40.4
CC1(C)O[C@@H]2C[C@H]3[C@@H]4CCC5=CC(=O)C=C[C@]5(C)[C@H]4[C@@H](O)C[C@]3(C)[C@]2(C(=O)CO)O1	100	104	106	91.8	93	90.2	70.7	64	66	65.2	62.9	90.3	100	107	106	82.4	76.3	59.2	53	52	50.4	51.5	90.2	98.8	97.8	92.4	76.6	72.8	56.6	49.8	45.4	40.9	42.1
OC1=CC2=C(C(=C1)O)C(=O)\C=C(/O2)C3=CC=CC=C3	104	102	105	108	110	108	103	110	104	77.9	3.28	104	104	107	111	115	110	101	107	103	82.9	3.34	99.5	103	102	99.9	103	100	114	104	103	84.4	4.92
CC(C)=CC[C@@H](O)C/1=C/C(=O)C2=C(O)C=CC(=C2C1=O)O	90.8	107	111	108	109	109	118	111	104	17.1	8.56	93.6	113	114	120	120	114	120	106	108	22.9	8.56	92.7	106	108	108	113	107	118	117	113	55.2	21
Cc1cnc(NC(=O)Nc2cc(Br)c(C)cc2OC[C@@H]2CNCCO2)cn1	119	106	112	113	120	106	104	100	76.7	93.8	48.4	108	109	105	111	118	115	111	99.1	67.9	99.5	34.3	114	120	118	121	121	123	110	91	53.2	82.4	23.9
FC(F)c1nc2ccccc2n1-c1nc(N2CCOCC2)nc(N2CCOCC2)n1	98.2	108	107	104	101	91.4	85.4	78.5	83.8	81.9	59.1	98	104	96	85.4	92.8	71	64.7	58.9	61.1	58.7	58	106	94.5	103	102	95.3	92.6	75.7	54.4	63.5	64.8	55.8
